# Key:
# [1] = target: T1, D5 (Homo sapiens, UniProt P21918); experiment: D5 cAMP assay; conditions: fold change of dopamine EC50, 50 μM compound
# Method: (§2) cAMP Accumulation Assay. Assays were performed on D1R-HEK293 (Codex Biosolutions, Gaithersburg, Md.) cells stably expressing the human D1R. HEK293 cell lines were maintained in Dulbecco's modified Eagles medium, supplemented with 10% fetal bovine serum, 100 U/ml penicillin, 100 μg/ml streptomycin, 1 mM sodium pyruvate, and 250 μg/ml G418 and incubated at 37° C., 5% CO2, and 90% humidity. […] After 18-24 h incubation at 37° C., 5% CO2, and 90% humidity, the media was removed and replaced with 5 μL/well PBS. […] Briefly, antibody and working solution was added to each well according to the manufacturer's protocol, and incubated in the dark at room temperature for 60 min. Following incubation, enzyme acceptor reagent was added to the plates and luminescence (RLU) was measured (FDSS μCell, Hamamatsu Photonics K. K., Bridgewater, N.J.) following a 3 h incubation in the dark at room temperature.
# [2] = target: T1, D5; experiment: D5R β-arrestin recruitment assay (DiscoverX PathHunter, CHO cells); format: cell-based; set-up: host or cells: CHO-K1; conditions: for D5 Beta-Arrestin: DA + 50 μM PAM, Fold Change EC50: fold change of dopamine EC50, 50 μM compound
# Method: (§1) β-arrestin Recruitment Assay. […] Following 18-24 h of incubation, the cells were treated with the indicated concentrations of compound in PBS buffer containing 0.2 mM sodium metabisulfite, and incubated at 37° C. for 90 min. DiscoverX reagent was added to cells according to the manufacturer's protocol, followed by a 60 min incubation in the dark at room temperature. Luminescence was measured on a Hamamatsu FDSS μ-Cell reader (Hamamatsu, Bridgewater, N.J.) and data were collected using the FDSS software.
# Each PAM was also examined in the absence of DA as an agonist, as indicated.
# [3] = target: T2, human D1R (Homo sapiens, UniProt P21728); experiment: D1 cAMP accumulation assay (D1R-HEK293 cells, DiscoverX HitHunter); conditions: fold change of dopamine EC50, 50 μM compound
# T2 sequence (P21728 whole entry): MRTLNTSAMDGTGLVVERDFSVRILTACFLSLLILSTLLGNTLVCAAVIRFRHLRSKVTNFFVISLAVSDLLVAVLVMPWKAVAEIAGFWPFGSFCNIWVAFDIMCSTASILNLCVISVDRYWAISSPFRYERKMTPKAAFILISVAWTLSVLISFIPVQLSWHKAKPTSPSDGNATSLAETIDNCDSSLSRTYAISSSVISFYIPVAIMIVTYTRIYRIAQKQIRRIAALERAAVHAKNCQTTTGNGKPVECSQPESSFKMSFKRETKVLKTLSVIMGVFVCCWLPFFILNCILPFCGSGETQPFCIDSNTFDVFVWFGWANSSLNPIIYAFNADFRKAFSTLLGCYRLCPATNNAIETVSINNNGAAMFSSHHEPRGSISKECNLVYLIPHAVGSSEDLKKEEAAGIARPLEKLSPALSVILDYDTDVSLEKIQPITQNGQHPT
# Method: as §2
# [4] = target: T2, human D1R; experiment: D1R β-arrestin recruitment assay (DiscoverX PathHunter, CHO-K1 cells); conditions: fold change of dopamine EC50, 50 μM compound
# Excerpt: The DiscoverX PathHunter β-Arrestin Assay was used to measure β-arrestin reuitment to the D1R following the manufacturer's instructions.
# [5] = target: T3, D4R (Homo sapiens, UniProt P21917); experiment: D4 β-arrestin recruitment assay (DiscoverX PathHunter, CHO-K1 cells); format: cell-based; set-up: inferred from the same PathHunter system described for D1R and D5R; host or cells: CHO-K1; conditions: fold change of dopamine EC50, 50 μM compound
# T3 sequence (P21917 1-419): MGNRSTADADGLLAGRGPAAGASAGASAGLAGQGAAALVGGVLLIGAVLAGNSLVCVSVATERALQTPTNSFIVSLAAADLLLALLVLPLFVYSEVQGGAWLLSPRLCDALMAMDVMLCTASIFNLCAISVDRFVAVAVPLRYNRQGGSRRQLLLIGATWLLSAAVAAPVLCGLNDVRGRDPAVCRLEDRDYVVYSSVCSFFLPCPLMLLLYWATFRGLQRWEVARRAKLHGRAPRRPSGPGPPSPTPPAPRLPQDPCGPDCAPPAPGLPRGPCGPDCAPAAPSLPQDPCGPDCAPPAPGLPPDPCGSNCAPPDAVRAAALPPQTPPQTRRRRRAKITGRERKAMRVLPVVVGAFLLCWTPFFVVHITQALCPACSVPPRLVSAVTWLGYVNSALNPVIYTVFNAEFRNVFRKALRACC
# Method: as §1, with “Assay. Agonist-mediated recruitment of β-arrestin-2 to all five DARs was determined using the DiscoveRx PathHunter complementation assay (DiscoverX Inc, Fremont, Calif.), as previously described (Free, et. al., 2014; Conroy, et. al., 2015).” for “Assay.”
# [6] = target: β2AR (Homo sapiens, UniProt P07550); experiment: β2AR β-arrestin BRET assay; conditions: epinephrine alone; mean ± SEM
# β2AR, sequence (P07550 whole entry): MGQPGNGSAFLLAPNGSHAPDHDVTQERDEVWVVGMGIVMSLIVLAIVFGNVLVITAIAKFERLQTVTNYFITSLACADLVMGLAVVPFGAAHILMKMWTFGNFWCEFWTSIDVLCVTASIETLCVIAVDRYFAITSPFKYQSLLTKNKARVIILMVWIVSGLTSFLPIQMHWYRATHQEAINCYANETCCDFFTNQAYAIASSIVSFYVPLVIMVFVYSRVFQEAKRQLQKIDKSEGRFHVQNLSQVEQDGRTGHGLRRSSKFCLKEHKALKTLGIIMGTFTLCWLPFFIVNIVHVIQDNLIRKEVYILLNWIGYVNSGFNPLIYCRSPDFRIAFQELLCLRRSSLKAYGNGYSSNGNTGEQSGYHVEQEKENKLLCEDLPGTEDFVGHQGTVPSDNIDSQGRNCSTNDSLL
# Method: (§3) Bioluminescence Resonance Energy Transfer (BRET) Assays. Experiments were performed in HEK239 cells transiently transfected with D1R-RLuc8 and β-arrestin-mVenus (β-arrestin BRET) or Gαs-mVenus+β1+γ2 (Gs BRET) using the polyethylenimine (PEI) transfection method. […] Appropriate amounts of DNA were combined with 3 μg/μL PEI per μg of DNA in nonsupplemented DMEM and incubated with the cells overnight. Experiments were performed 48 hours post-transfection. On experiment day, cells were collected and resuspended in Dulbecco's Phosphate-Buffered Saline (DPBS) with Ca2+ and Mg2++0.2 mM sodium metabisulfite+5.5 mM glucose.
# [7] = target: D2R (Homo sapiens, UniProt P14416); experiment: D2R β-arrestin BRET assay; conditions: dopamine alone; mean ± SEM
# D2R, sequence (P14416 whole entry): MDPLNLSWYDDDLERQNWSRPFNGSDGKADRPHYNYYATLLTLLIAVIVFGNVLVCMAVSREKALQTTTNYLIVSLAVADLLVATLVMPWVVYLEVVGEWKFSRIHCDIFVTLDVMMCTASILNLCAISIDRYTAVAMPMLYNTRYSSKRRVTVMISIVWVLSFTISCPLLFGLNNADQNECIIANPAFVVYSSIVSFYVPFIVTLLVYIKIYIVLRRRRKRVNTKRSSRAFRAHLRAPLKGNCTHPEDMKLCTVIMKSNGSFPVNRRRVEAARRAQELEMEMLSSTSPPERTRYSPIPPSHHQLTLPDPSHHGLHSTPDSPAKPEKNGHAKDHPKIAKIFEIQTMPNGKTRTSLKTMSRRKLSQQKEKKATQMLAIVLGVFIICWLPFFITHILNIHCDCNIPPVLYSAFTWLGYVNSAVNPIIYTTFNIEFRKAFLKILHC
# Method: as §3
# T1 sequence (P21918 whole entry): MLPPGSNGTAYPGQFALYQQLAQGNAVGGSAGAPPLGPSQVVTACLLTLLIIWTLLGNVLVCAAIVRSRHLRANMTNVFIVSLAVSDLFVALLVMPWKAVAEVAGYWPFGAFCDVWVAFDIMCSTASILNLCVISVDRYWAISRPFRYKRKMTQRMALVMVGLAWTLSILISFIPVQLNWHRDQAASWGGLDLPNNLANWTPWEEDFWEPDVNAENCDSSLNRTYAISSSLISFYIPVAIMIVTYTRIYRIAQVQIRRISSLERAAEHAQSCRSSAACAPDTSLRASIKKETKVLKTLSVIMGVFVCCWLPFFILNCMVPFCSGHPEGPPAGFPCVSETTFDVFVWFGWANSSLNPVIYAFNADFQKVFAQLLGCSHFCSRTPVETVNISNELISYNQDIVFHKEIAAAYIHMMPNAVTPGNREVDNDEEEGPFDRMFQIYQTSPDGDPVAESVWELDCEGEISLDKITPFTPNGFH
SMILES,"D5 cAMP: DA + 50 μM PAM, Fold Change EC50 [1]","D5 Beta-Arrestin: DA + 50 μM PAM, Fold Change EC50 [2]","D1 cAMP: DA + 50 μM PAM, Fold Chg EC50 [3]","D1 Beta-Arrestin: DA + 50 μM PAM, Fold Chg EC50 [4]","D4 Beta-Arrestin: DA + 50 μM PAM, Fold Change EC50 [5]",β2AR Agonist Emax (% Ctrl) [6],D2R Agonist Emax (% Ctrl) [7],PAM activity at the D5 receptor ([2]; 50 μM compound),fold change of dopamine EC50 for β-arrestin recruitment to D5R ([2]; 50 μM compound)
CC1CCc2c(sc(NC(=O)c3ccncc3)c2C(N)=O)C1 (stereo not drawn) [Compound 33],1.57,1.86,1.53,0.97,0.81,,,,
CC1CCc2c(sc(NC(=O)c3cccnc3)c2C(N)=O)C1 (stereo not drawn) [Compound 35],0.76,1.06,1.79,0.97,1.07,,,,
CN1CCc2c(sc(NC(=O)c3ccncc3)c2C#N)C1 [Compound 34],1.45,1.28,1.30,0.61,0.96,,,,
COc1ccc(-n2c(CC3CCCCC3)nc3c(c(=O)c4ccccc4n3C)c2=O)cc1 [Compound 16],0.67,0.73,0.34,0.45,1.45,,,,
CC(C)(C)C1CCc2c(sc(NC(=O)c3cccnc3)c2C(N)=O)C1 (stereo not drawn) [Compound 38],,0.78,2.29,10.35,2.26,,,,
CCOC(=O)c1c(NC(=O)c2cccnc2)sc2c1CCC(C(C)(C)C)C2 (stereo not drawn) [Compound 39],,0.65,1.04,3.01,2.03,,,,
"CNC[C@H](O)c1ccc(O)c(O)c1 [Epinephrine, epinephrine, reference compound]",,,,,,99.9 ± 1.18 % Ctrl,,,
"NCCc1ccc(O)c(O)c1 [Dopamine, dopamine, reference compound]",,,,,,,100 ± 12.48 % Ctrl,,
Cn1c2ccccc2c(=O)c2c(=O)n(-c3cccc(Cl)c3)c(CC3CCCCC3)nc21 [Compound 22],0.73,1.40,,,1.67,,,,
CC(C)(C)C1CCc2c(sc(NC(=O)c3ccc4ccccc4n3)c2C(N)=O)C1 (stereo not drawn) [Compound 32],1.25,0.92,1.28,0.77,0.73,,,,
CC1CCc2c(sc(NC(=O)c3ccc4ccccc4n3)c2C(N)=O)C1 (stereo not drawn) [Compound 31],0.45,0.83,1.20,1.35,1.34,,,,
CC(C)(C)C1CCc2c(sc(NC(=O)c3ccccn3)c2C(N)=O)C1 (stereo not drawn) [Compound 30],0.60,0.48,1.31,1.05,0.43,,,,
CC(C)(C)C1CCc2c(sc(NC(=O)c3cncc(Br)c3)c2C(N)=O)C1 (stereo not drawn) [Compound 29],0.66,1.68,1.30,1.05,1.20,,,,
Cn1c2ccccc2c(=O)c2c(=O)n(-c3ccccc3)c(CC3CCCCC3)nc21 [Compound 20],1.30,2.38,,,2.14,,,,
NC(=O)c1c(NC(=O)c2ccccn2)sc2c1CCCC2 [Compound 36],0.86,0.26,2.50,0.83,1.19,,,,
Cn1c2ccccc2c(=O)c2c(=O)n(-c3ccccc3)c(C3CC3)nc21 [Compound 23],0.57,2.58,,,1.32,,,,
CC1CCc2c(sc(NC(=O)c3ccccn3)c2C(N)=O)C1 (stereo not drawn) [Compound 37],1.64,0.47,1.61,1.05,1.06,,,,
NC(=O)c1c(NC(=O)c2cccnc2)sc2c1CCC(c1ccccc1)C2 (stereo not drawn) [Compound 40],,0.48,0.7,1.97,0.68,,,,
Cc1ccc(-n2c(CC(C)C)nc3c(c(=O)c4ccccc4n3C)c2=O)cc1 [Compound 5],2.23,1.32,,,1.06,,,none of these analogs have PAM activity,1.3 fold
Cn1c2ccccc2c(=O)c2c(=O)n(-c3cccc(Cl)c3)c(CC3CCCCC3)nc21 [Compound 18],0.34,1.35,,,1.57,,,,

# — patent US20210040074A1 (The United States of America,as represented by the …, priority 2018, published 2021)
